Literature values as cited in patent publication US20050181036A1 (Research Development Foundation, priority 2003, published 2005).
Entries after “also recorded” stand apart in the source; their conditions may differ.

solubility in dimethylsulfoxide (dimethylsulfoxide): soluble
solubility in ethanol (ethanol): soluble
solubility in ether (ether): insoluble
SMILES: COc1cc(/C=C/C(=O)CC(=O)/C=C/c2ccc(O)c(OC)c2)ccc1O [Curcumin, diferuloylmethane]
solubility in water (water): insoluble; also recorded: not water-soluble
